Like-named read-outs stand apart in the source and are kept apart here. Positions of bridges follow the written chain, without caps; N, C: chain ends. Residues, ends and D or L forms follow the SMILES beside them.
Key:
hKv1.2 = biological target: T1, hKv1.2 (Homo sapiens, UniProt P16389); experiment: Whole-cell patch-clamp, hKv1.2 current in transiently transfected CHO cells; format: cell-based; details: for inhibition at 0.001 µM / koff / kon: CHO; for inhibition at 0.001 µM: 1 nM; for koff: calculated from τoff; for koff / kon: 100 pM Cvill7 (n = 4) or 100 nM Cvill6 (n = 5); for kon: calculated from τon and τoff; for selectivity for Kv1.2 over Kv1.3: IC50 ratio; for τon (development of block) / τoff (wash-out): mean ± SEM; for Hill coefficient (H): Hill equation fit of RCF values; for mode of block: inferred from Hill coefficients close to 1 and single-exponential kinetics; for reversibility of Kv1.2 block: wash-out with toxin-free solution
T1 construct: host or cells: CHO cells, transient transfection (Lipofectamine 2000)
Experimental: Chinese hamster ovary (CHO) cells (generously provided by Yosef Yarden, Weizmann Institute of Science, Rehovot, Israel) or human embryonic kidney (HEK293) cells were cultured and maintained in Dulbecco’s modified Eagle medium (DMEM, Thermo Fisher Scientific, Waltham, MA, USA) supplemented with 2 mM L-glutamine, 10% fetal bovine serum (FBS), 100 µg/mL streptomycin, and 100 U/mL penicillin-g (Sigma-Aldrich, Budapest, Hungary) following standard culturing conditions [52]. For transient expression of ion channels, CHO cells were transfected using the Lipofectamine 2000 kit (Invitrogen, Waltham, MA, USA) following the manufacturer’s instructions with plasmids encoding specific ion channels, including hKv1.1 (KCNA1 gene), hKv1.2 (KCNA2 gene), and hKv1.5 (KCNA5 gene) in a pCMV6-AC-GFP vector (OriGene Technologies), hKCa2.2 (KCNN2 gene) in a pCDN3 plasmid (for this transfection a GFP containing plasmid was co-transfected, courtesy of Bernard Attali, Tel Aviv University, Tel Aviv, Israel), and hKCa3.1 (KCNN4 gene) in a pEGFP-C1 vector (a kind gift by H. Wulff, University of California, Davis, CA, USA). […] Electrophysiological recordings were typically conducted 24 to 48 h after transfection.
Whole-cell currents were recorded using the patch-clamp technique in voltage-clamp mode, following standard protocols [73]. […] Micropipettes were made from GC150F-7.5 borosilicate capillaries (Harvard Apparatus Co., Holliston, MA, USA) using a Sutter P2000 laser puller with tip resistance generally ranging from 3–6 MΩ in the bath solution. Only recordings with a leak current at the holding potential (Vh) of <10% of the peak current at the test potential were included in the data analysis. All recordings were performed at room temperature (20–25 °C). Control and test solutions were perfused to the cells via a gravity-driven micro-perfusion system and AutoMate Perfusion Pencil Multi-Barrel Manifold Tip (AutoMate Scientific, Berkeley, CA, USA), with an approximate flow rate of 200 µL/min, and the excess amount of bath solution was continuously removed from the recording chamber using vacuum suction.
The duration of depolarization pulses was 15 ms for Kv1.3 and 50 ms for Kv1.1 and Kv1.5. However, for Kv1.2, 15–500 ms-long pulses were used to achieve the saturated peak current due to the variable activation kinetics of this channel [74].

hKv1.3 = biological target: T2, hKv1.3 (Homo sapiens, UniProt P22001); experiment: cell-based; format: cell-based
T2 construct: peripheral blood mononuclear cells (PBMCs) were isolated from the healthy donor’s blood; endogenous in cells
From the text: Therefore, we aimed to investigate the effects of Cvill6 and Cvill7 on voltage-gated K^+ ion channels. Among the tested ion channels there were four members from the Shaker-related human Kv1 family, hKv1.1, hKv1.2, hKv1.3, and hKv1.5 (Figure 3A–E), and one member of the human ether-a-go-go-related (hERG) cardiac K^+ channel hKv11.1 (hERG1, Figure 3F). For current recordings, Kv1.1, Kv1.2, and Kv1.5 were transiently expressed in CHO cells while for Kv11.1 a stable HEK293 cell line was used. To record Kv1.3 currents human peripheral T lymphocytes were activated with Phytohemagglutinin A (PHA) to boost Kv1.3 expression and Ca^2+-free intracellular solution to prevent the KCa3.1 channel opening. […] Appropriate voltage protocols were applied to record the K^+ currents from voltage-clamped cells in whole-cell configurations. Toxins were freshly dissolved in the bath solution supplemented with 0.1 mg/mL BSA and applied to the patched cells via a gravity-fed micro-perfusion system with an approximate flow rate of 200 µL/min.
To avoid toxin adsorption onto the plastic surfaces of the perfusion system, 0.1 mg/mL of bovine serum albumin (BSA, Sigma-Aldrich, Budapest, Hungary) was also added into all bath solutions prior to the patch-clamp assay.
Whole-cell currents were recorded using the patch-clamp technique in voltage-clamp mode, following standard protocols. […] Micropipettes were made from GC150F-7.5 borosilicate capillaries (Harvard Apparatus Co., Holliston, MA, USA) using a Sutter P2000 laser puller with tip resistance generally ranging from 3–6 MΩ in the bath solution. Only recordings with a leak current at the holding potential (Vh) of <10% of the peak current at the test potential were included in the data analysis. All recordings were performed at room temperature (20–25 °C). Control and test solutions were perfused to the cells via a gravity-driven micro-perfusion system and AutoMate Perfusion Pencil Multi-Barrel Manifold Tip (AutoMate Scientific, Berkeley, CA, USA), with an approximate flow rate of 200 µL/min, and the excess amount of bath solution was continuously removed from the recording chamber using vacuum suction.
The duration of depolarization pulses was 15 ms for Kv1.3 and 50 ms for Kv1.1 and Kv1.5. However, for Kv1.2, 15–500 ms-long pulses were used to achieve the saturated peak current due to the variable activation kinetics of this channel. […] KCa2.2 and KCa3.1 currents were recorded by applying 150 ms-long voltage ramps to +50 mV from −120 mV every 10 s; the Vh was set to −85 mV.
Before analysis, all current traces were digitally filtered using three-point boxcar smoothing and were corrected for ohmic leakage, only if required. […] Data points in the concentration–response curve represent the mean RCF values of three to six individual cells, with error bars denoting the standard error of the mean (SEM). The data points for each concentration were fitted using the Hill equation: RCF = IC50^H/(IC50^H + [toxin]^H), where IC50 is the dissociation constant, H represents the Hill coefficient, and [toxin] is the concentration of the toxin.
To study the binding kinetics of Cvill toxins, the peak current during the application of toxin at time point t (It) was normalized to the peak current (I0) before the toxin exposure (Inorm = It/I0) and plotted as a function of time.

hKv1.5 = format: cell-based, human; details: 100 nM; ~3 min
Experimental: Chinese hamster ovary (CHO) cells (generously provided by Yosef Yarden, Weizmann Institute of Science, Rehovot, Israel) or human embryonic kidney (HEK293) cells were cultured and maintained in Dulbecco’s modified Eagle medium (DMEM, Thermo Fisher Scientific, Waltham, MA, USA) supplemented with 2 mM L-glutamine, 10% fetal bovine serum (FBS), 100 µg/mL streptomycin, and 100 U/mL penicillin-g (Sigma-Aldrich, Budapest, Hungary) following standard culturing conditions [52]. For transient expression of ion channels, CHO cells were transfected using the Lipofectamine 2000 kit (Invitrogen, Waltham, MA, USA) following the manufacturer’s instructions with plasmids encoding specific ion channels, including hKv1.1 (KCNA1 gene), hKv1.2 (KCNA2 gene), and hKv1.5 (KCNA5 gene) in a pCMV6-AC-GFP vector (OriGene Technologies), hKCa2.2 (KCNN2 gene) in a pCDN3 plasmid (for this transfection a GFP containing plasmid was co-transfected, courtesy of Bernard Attali, Tel Aviv University, Tel Aviv, Israel), and hKCa3.1 (KCNN4 gene) in a pEGFP-C1 vector (a kind gift by H. Wulff, University of California, Davis, CA, USA). […] Electrophysiological recordings were typically conducted 24 to 48 h after transfection. […]
(§1) Whole-cell currents were recorded using the patch-clamp technique in voltage-clamp mode, following standard protocols [73]. […]

mKCa1.1 (BK or MaxiK) = format: cell-based, mice; details: 100 nM; ~3 min
From the text: Therefore, we investigated the activity of Cvill6 and Cvill7 toxins on three different types of Ca^2+-activated K^+ channels: (1) hKCa2.2 (SK2), the small-conductance Ca^2+-activated channel; (2) hKCa3.1 (IKCa1, SK4), the intermediate-conductance Ca^2+-activated channels, mainly expressed in T lymphocytes; and (3) mKCa1.1 (BK or MaxiK), the large-conductance voltage- and Ca^2+- activated channel of mice. Appropriate depolarization protocols were applied to record the K^+ current through respective KCa channels as shown in the inset of each panel in Figure 6A–C. […] The normalized peak currents (see Section 2.4 or Section 5 for details) for individual cells (n = 5) were averaged at each time point and plotted as a function of time.
HEK 293 cells stably expressing mKCa1.1 1 (BKCa, Kcnma1 gene, generously provided by C. Beeton from Baylor College of Medicine, Houston, TX, USA) or hKv11.1 (hERG1, KCNH2 gene, gifted by H. Wulff from University of California, Davis, CA, USA) were utilized in this study.
as §1

[1] = representative record, read-out: inhibition of hKv1.2 current
[2] = read-out: inhibition of hKv1.3 current

T1 sequence (P16389 whole entry): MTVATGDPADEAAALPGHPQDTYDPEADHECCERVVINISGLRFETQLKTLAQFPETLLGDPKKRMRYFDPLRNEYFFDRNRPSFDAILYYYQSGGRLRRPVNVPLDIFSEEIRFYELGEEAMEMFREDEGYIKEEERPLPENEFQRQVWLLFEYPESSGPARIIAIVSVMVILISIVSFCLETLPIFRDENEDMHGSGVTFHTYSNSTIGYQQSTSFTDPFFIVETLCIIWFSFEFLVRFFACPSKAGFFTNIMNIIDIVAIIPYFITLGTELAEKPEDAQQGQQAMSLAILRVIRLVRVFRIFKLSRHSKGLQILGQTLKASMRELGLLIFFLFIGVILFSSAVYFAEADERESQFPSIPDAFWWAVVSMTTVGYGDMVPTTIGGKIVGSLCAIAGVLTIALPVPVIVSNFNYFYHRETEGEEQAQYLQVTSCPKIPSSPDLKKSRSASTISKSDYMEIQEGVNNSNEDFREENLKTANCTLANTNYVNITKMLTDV
T2 sequence (P22001 whole entry): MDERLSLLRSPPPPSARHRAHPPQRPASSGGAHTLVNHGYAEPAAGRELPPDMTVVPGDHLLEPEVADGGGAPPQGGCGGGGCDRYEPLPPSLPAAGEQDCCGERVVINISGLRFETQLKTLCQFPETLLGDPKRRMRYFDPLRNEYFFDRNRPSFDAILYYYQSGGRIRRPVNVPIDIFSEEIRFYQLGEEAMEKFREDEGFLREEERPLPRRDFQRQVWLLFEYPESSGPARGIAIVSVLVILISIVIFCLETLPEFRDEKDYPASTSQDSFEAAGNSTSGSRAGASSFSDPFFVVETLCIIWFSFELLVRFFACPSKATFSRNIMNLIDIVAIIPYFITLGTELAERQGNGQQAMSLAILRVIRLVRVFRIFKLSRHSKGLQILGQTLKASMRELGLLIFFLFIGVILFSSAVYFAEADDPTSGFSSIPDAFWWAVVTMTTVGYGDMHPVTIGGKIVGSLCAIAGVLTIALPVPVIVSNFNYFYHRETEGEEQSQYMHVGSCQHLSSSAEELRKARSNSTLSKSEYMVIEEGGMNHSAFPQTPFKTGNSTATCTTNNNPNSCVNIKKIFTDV

## CC[C@H](C)[C@H](N)C(=O)N[C@@H](Cc1ccccc1)C(=O)N[C@H](C(=O)N[C@@H](CC(N)=O)C(=O)N[C@H](C(=O)N[C@@H](CCCCN)C(=O)N[C@H]1CSSC[C@@H]2NC(=O)[C@H](CCCCN)NC(=O)CNC(=O)CNC(=O)[C@H](C)NC(=O)[C@H](Cc3c[nH]cn3)NC(=O)[C@H](CCC(N)=O)NC(=O)CNC(=O)[C@H](Cc3ccccc3)NC(=O)[C@H](CCCNC(=N)N)NC(=O)[C@H](CC(=O)O)NC(=O)[C@H](CCCCN)NC(=O)[C@@H]3CSSC[C@@H](C(=O)N[C@@H](Cc4ccc(O)cc4)C(=O)N4CCC[C@H]4C(=O)O)NC(=O)[C@H](CCCCN)NC(=O)[C@H](CSSC[C@H](NC(=O)[C@H](CCC(N)=O)NC(=O)[C@H](CCC(N)=O)NC(=O)[C@@H]4CCCN4C(=O)[C@H](CC(C)C)NC(=O)[C@H](CC(=O)O)NC1=O)C(=O)N[C@@H](CC(C)C)C(=O)N[C@@H](CCCNC(=N)N)C(=O)N1CCC[C@H]1C(=O)N3)NC(=O)[C@H](CCCCN)NC(=O)CNC(=O)[C@H](CC(N)=O)NC(=O)[C@H]([C@@H](C)CC)NC2=O)C(C)C)[C@@H](C)CC [Cvill6] (H-IFINVKCDLPQQCLRPCKDRFGQHAGGKCINGKCKCYP-OH; disulfide 7-29, 13-34, 17-36 (inferred); N-terminus and C-terminus assumed)
hKv1.2
  IC50: 3.9 ± 0.27 nM
  selectivity for Kv1.2 over Kv1.3: ~ 215 fold
  mode of block: pore blockers that interact with channels with 1:1 stoichiometry in a bimolecular interaction
  reversibility of Kv1.2 block: reversible but with very slow dissociation kinetics
hKv1.2; 100 nM, n = 5
  steady-state block of Kv1.2: 97 ± 1.2%
hKv1.2; [1]
  inhibition at 0.001 µM: ~28%
hKv1.2; screening summary (Figure 3G), read-out: inhibition of hKv1.2 currents
  inhibition at 0.001 µM: ~16%
hKv1.2; Kv1.2
  koff: 0.00091 s⁻¹
  kon: 290000 M⁻¹ s⁻¹
  Hill coefficient (H): 1.4
hKv1.2; IC50 comparison
  times less potency for Kv1.2 than Cvill7: 244 times
hKv1.2; Kv1.2, 100 nM, n = 5
  τon (development of block): 35 ± 2.7 s
hKv1.2; Kv1.2, 100 nM, representative fit (Figure S5C)
  τon, representative fit: 38.7 s
hKv1.2; Kv1.2, after 100 nM, n = 5
  τoff (wash-out): 1287 ± 259 s
hKv1.2; Kv1.2, after 100 nM, representative fit (Figure S5C)
  τoff, representative fit: 776.4 s
hKv1.2; Kv1.2, koff/kon ratio, 100 nM, read-out: dissociation constant (Kd), koff/kon
  Kd: 3.3 nM
hKv1.2; toxin-free solution after 100 nM
  recovery of Kv1.2 current, up to % of initial current: up to 65%
hKv1.3; read-out: estimated IC50
  potency estimated from few doses: ~840 nM
hKv1.3; read-out: inhibition of Kv1.3
  inhibition at 0.1 µM: ~11%
hKv1.3; [2]
  inhibition at 0.1 µM: ~13%
hKv1.5
  effect on hKv1.5 current: no change in current amplitudes
mKCa1.1 (BK or MaxiK)
  effect on KCa1.1 current: Neither Cvill6 nor Cvill7 showed any effect

## CC[C@H](C)[C@H](NC(=O)[C@H](Cc1ccccc1)NC(=O)[C@@H](N)[C@@H](C)O)C(=O)N[C@@H](CC(N)=O)C(=O)N[C@H](C(=O)N[C@@H](CCCCN)C(=O)N[C@H]1CSSC[C@@H]2NC(=O)[C@H](CCCCN)NC(=O)CNC(=O)CNC(=O)[C@H](C)NC(=O)[C@H](Cc3c[nH]cn3)NC(=O)[C@@H]3CCCN3C(=O)CNC(=O)[C@H](Cc3ccc(O)cc3)NC(=O)[C@H](CC(C)C)NC(=O)[C@H](CC(=O)O)NC(=O)[C@H](CCCCN)NC(=O)[C@@H]3CSSC[C@@H](C(=O)N[C@@H](Cc4ccc(O)cc4)C(=O)N[C@@H](CC(N)=O)C(=O)N[C@@H](CC(N)=O)C(N)=O)NC(=O)[C@H](CCCCN)NC(=O)[C@H](CSSC[C@H](NC(=O)[C@H](CCC(N)=O)NC(=O)[C@H](CCCCN)NC(=O)[C@@H]4CCCN4C(=O)[C@H](CO)NC(=O)[C@H]([C@@H](C)O)NC1=O)C(=O)N[C@@H](CC(C)C)C(=O)N[C@@H](CCCCN)C(=O)N1CCC[C@H]1C(=O)N3)NC(=O)[C@H](CCCCN)NC(=O)CNC(=O)[C@H](CC(N)=O)NC(=O)[C@H](CCSC)NC2=O)C(C)C [Cvill7] (H-TFINVKCTSPKQCLKPCKDLYGPHAGGKCMNGKCKCYNN-NH2; disulfide 7-29, 13-34, 17-36; N-terminus and C-terminus assumed)
hKv1.2
  IC50: 0.016 ± 0.00156 nM
  selectivity for Kv1.2 over Kv1.3: ~ 450 fold
  mode of block: pore blockers that interact with channels with 1:1 stoichiometry in a bimolecular interaction
  reversibility of Kv1.2 block: virtually irreversible inhibitor of Kv1.2
hKv1.2; 100 pM
  time to apparent saturation of Kv1.2 block: 7 to 8 min
hKv1.2; 100 pM, n = 4
  loss of Kv1.2 current at saturation: 96 ± 1.4%
hKv1.2; [1]
  inhibition at 0.001 µM: > 97%
hKv1.2; Kv1.2
  koff: 0.00017 s⁻¹
  kon: 1e+08 ± 1.5e+07 M⁻¹ s⁻¹
  Hill coefficient (H): 1.03
hKv1.2; KCa3.1 IC50 estimated from a single concentration
  selectivity for Kv1.2 over KCa3.1: > 32,000 fold
hKv1.2; Kv1.1 IC50 estimated from a single concentration
  selectivity for Kv1.2 over Kv1.1: ~ 12,000 fold
hKv1.2; Kv1.2, 100 pM, representative fit (Figure S5A)
  τon, representative fit: 75.3 s
hKv1.2; Kv1.2, 100 pM, single-exponential fits cell-by-cell, n = 4
  τon (development of block): 104 ± 15 s
hKv1.2; Kv1.2, after 100 pM, n = 4
  τoff (wash-out): 5978 ± 538 s
hKv1.2; Kv1.2, after 100 pM, representative fit (Figure S5A)
  τoff, representative fit: 7380 s
hKv1.2; Kv1.2 vs several other ion channels
  selectivity over several other ion channels: three orders of magnitude selectivity over several other ion channels
hKv1.2; toxin-free solution for ~15 min after 100 pM
  recovery of blocked Kv1.2 current: just one-fifth of the blocked current recovered
hKv1.3
  IC50: 7.2 ± 0.64 nM
  Kd: 25 nM
  koff: 0.032 ± 0.0068 s⁻¹
  kon: 1.3e+06 M⁻¹ s⁻¹
hKv1.3; 15 nM, then toxin-free solution
  reversibility of Kv1.3 block: fully reversible with rapid association and dissociation kinetics
hKv1.3; 15 nM, n = 3
  equilibrium block of Kv1.3: 67 ± 3%
hKv1.3; Kv1.3, 15 nM, mean ± SEM, n = 3
  τon (development of block): 20 ± 1.8 s
hKv1.3; Kv1.3, 15 nM, representative fit (Figure S5B)
  τon, representative fit: 22.6 s
hKv1.3; Kv1.3, Hill equation fit of RCF values
  Hill coefficient (H): 0.73
hKv1.3; Kv1.3, after 15 nM, mean ± SEM, n = 3
  τoff (wash-out): 34 ± 6 s
hKv1.3; Kv1.3, after 15 nM, representative fit (Figure S5B)
  τoff, representative fit: 34.5 s
hKv1.3; [2]
  inhibition at 0.1 µM: ~86%
hKv1.5
  effect on hKv1.5 current: did not show any effect
mKCa1.1 (BK or MaxiK)
  effect on KCa1.1 current: Neither Cvill6 nor Cvill7 showed any effect

— PMC12197678, “Cvill6 and Cvill7: Potent and Selective Peptide Blockers of Kv1.2 Ion Channel Isolated from Mexican Scorpion Centruroides villegasi” (Toxins, 2025)
